Results as given in ChEMBL document CHEMBL5143585, “Discovery and characterization of benzyloxy piperidine based dopamine 4 receptor antagonists” (Bioorg Med Chem Lett, 2022).

How the values were obtained:
[1] = Stability of the compound in mouse plasma; format: ADME, cell-free
[2] = biological target: D(2) dopamine receptor (Homo sapiens) (UniProt P14416); assay: Displacement of [3H]N-methylspiperone from human D2 receptor expressed in HEK293 cell membrane at 10 uM by competitive inhibition based analysis; format: cell membranes
D(2) dopamine receptor (Homo sapiens), sequence (P14416 whole entry): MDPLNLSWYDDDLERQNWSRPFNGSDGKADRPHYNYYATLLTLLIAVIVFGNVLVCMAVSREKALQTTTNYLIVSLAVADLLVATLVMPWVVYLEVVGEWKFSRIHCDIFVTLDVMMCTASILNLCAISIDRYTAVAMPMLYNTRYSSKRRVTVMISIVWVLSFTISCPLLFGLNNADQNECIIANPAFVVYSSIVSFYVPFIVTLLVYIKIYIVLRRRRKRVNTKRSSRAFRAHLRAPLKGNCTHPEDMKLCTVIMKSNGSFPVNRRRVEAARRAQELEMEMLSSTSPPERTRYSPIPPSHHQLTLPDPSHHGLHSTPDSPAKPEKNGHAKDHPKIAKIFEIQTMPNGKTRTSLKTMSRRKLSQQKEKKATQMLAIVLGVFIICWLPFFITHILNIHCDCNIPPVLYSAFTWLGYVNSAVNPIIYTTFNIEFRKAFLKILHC

D(3) dopamine receptor = D(3) dopamine receptor (Homo sapiens, UniProt P35462); assay: Displacement of [3H]N-methylspiperone from human D3 receptor expressed in HEK293 cell membrane at 10 uM by competitive inhibition based analysis; format: cell membranes
D(3) dopamine receptor, sequence (P35462 whole entry): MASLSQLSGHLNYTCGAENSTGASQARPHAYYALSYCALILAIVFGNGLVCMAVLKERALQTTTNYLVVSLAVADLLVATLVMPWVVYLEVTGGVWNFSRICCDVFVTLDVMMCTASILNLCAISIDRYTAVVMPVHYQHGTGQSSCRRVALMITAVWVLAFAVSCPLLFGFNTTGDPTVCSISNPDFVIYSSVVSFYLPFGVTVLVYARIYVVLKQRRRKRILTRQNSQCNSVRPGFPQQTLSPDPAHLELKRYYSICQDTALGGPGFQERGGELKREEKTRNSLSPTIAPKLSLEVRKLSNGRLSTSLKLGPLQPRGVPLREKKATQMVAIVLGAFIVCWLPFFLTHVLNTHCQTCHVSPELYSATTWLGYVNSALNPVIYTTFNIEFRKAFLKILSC

[3] = Protein binding in human plasma assessed as unbound fraction; format: ADME, cell-free
D(1B) dopamine receptor = D(1B) dopamine receptor (Homo sapiens, UniProt P21918); assay: Displacement of [3H]-SCH23390 from human D5 receptor expressed in HEK293 cell membrane at 10 uM by competitive inhibition based analysis; format: cell membranes
D(1B) dopamine receptor, sequence (P21918 whole entry): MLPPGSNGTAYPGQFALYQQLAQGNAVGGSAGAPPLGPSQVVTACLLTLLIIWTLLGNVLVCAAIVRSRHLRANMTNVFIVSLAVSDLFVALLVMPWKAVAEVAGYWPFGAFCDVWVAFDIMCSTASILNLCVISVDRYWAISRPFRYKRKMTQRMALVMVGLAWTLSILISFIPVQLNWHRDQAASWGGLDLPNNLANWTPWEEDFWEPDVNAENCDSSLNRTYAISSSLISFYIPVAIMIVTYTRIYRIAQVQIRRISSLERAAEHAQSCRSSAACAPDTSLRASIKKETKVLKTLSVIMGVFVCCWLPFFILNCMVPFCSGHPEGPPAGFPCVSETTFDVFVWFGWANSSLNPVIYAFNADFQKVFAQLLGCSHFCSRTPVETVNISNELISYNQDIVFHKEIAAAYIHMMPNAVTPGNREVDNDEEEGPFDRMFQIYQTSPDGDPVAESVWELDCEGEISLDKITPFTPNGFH

D(1A) dopamine receptor = D(1A) dopamine receptor (Homo sapiens, UniProt P21728); assay: Displacement of [3H]-SCH23390 from human D1 receptor expressed in HEK293 cell membrane at 10 uM by competitive inhibition based analysis; format: cell membranes
D(1A) dopamine receptor, sequence (P21728 whole entry): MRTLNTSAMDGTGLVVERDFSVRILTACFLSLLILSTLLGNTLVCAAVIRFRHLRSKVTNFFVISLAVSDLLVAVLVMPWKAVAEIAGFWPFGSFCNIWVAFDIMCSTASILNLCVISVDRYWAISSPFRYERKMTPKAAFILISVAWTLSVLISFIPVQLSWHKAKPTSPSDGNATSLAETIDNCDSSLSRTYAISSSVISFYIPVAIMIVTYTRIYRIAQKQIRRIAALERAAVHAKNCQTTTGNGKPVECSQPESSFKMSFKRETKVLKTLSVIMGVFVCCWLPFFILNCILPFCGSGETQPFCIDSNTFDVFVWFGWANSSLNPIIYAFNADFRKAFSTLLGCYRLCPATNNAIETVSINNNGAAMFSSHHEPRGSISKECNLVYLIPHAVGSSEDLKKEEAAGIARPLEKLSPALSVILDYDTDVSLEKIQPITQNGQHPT

D(4) dopamine receptor = biological target: T1, D(4) dopamine receptor (Homo sapiens, UniProt P21917); assay: Displacement of [3H]N-methylspiperone from human D4 receptor expressed in HEK293 cell membrane by competitive inhibition based analysis; format: cell membranes
T1 sequence (P21917 whole entry): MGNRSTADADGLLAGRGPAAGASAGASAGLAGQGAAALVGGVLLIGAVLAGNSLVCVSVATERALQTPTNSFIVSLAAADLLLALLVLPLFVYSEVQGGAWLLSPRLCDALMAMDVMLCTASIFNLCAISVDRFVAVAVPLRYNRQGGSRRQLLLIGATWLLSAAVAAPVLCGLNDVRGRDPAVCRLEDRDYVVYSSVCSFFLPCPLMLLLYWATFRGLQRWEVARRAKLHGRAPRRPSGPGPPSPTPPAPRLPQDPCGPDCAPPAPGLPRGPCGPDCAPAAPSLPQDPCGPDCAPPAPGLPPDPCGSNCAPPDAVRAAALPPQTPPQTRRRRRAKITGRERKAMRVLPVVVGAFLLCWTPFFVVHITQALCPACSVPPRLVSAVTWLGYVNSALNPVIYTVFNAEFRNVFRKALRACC

[4] = Protein binding in mouse plasma assessed as unbound fraction; format: ADME, cell-free
[5] = Intrinsic clearance in human liver microsomes; format: ADME, Microsome; conditions: read-out: CLH

Stability [1] | inhibition [2] | inhibition (D(3) dopamine receptor) | Fu [3] | inhibition (D(1B) dopamine receptor) | inhibition (D(1A) dopamine receptor) | IC50 (D(4) dopamine receptor) | Ki (D(4) dopamine receptor) | Fu [4] | CLint scaled [5] | Compound
Unstable | < 50% | < 50% | 0.5% | < 50% | < 50% | 120 nM | 121 nM | – | – | Cc1cc(NC(=O)CN2CCC(OCc3ccc(F)c(F)c3)CC2)ccc1F
– | < 50% | – | – | – | – | 5.01 nM | 5.8 nM | 3.7% | 71.9 mL/min/kg | COc1ccc(CN2CCO[C@H](COc3ccccc3)C2)cc1F
